Source: PMC2201222 (The Journal of General Physiology, 1968)

Assays:
[1] = Electrical resistance and potential of thin lipid; parameters: species or system sheep; conditions: about 22C, unbuffered pH 5.6
[2] = Activity toward Na+-K+ transport across sheep red cell and thin lipid membranes; conditions: for selectivity for K+ over Na+ (section heading of Table II): sheep red cells and thin lipid membranes
[3] = format: physicochemical; conditions: read-out by bilayer resistance
[4] = general statement, no method or reference given; cited from earlier work

Compound: CO[C@@H]1C[C@@H](C[C@H]2CC[C@H](C)[C@H]([C@@H](C)C(=O)O)O2)O[C@]2(O[C@](C)([C@H]3CC[C@@](C)([C@@H]4O[C@@H]([C@H]5O[C@@](O)(CO)[C@H](C)C[C@@H]5C)C[C@@H]4C)O3)C[C@H]2C)[C@@H]1C [Nigericin]
- Bilayers, TNa/TK (ratio of the transference number for Na+ to that for K+) ([1]; compound 10^-6 M): < 0.I
- selectivity for K+ over Na+ (section heading of Table II) [2]: moderate to low selectivity

Compound: C[C@@H]1C[C@H]2CC[C@H](O2)[C@H](C)C(=O)O[C@@H](C)C[C@@H]2CC[C@@H](O2)[C@@H](C)C(=O)O[C@H](C)C[C@H]2CC[C@H](O2)[C@H](C)C(=O)O[C@@H](C)C[C@@H]2CC[C@@H](O2)[C@@H](C)C(=O)O1 [Nonactin, nonactin]
- Bilayers, TNa/TK (ratio of the transference number for Na+ to that for K+) ([1]; compound 10^-7 M): < 0.01
- selectivity for K+ over Na+ (section heading of Table II) [2]: high selectivity

Compound: C=C1NC(=O)CC[C@@H](C(=O)O)NC(=O)[C@H](NC(=O)[C@H](CCCCN)NC(=O)[C@@H](N)Cc2c[nH]c3ccccc23)CSC[C@@H](C(=O)N[C@@H]2C(=O)N3CCC[C@H]3C(=O)NCC(=O)N[C@H](C(=O)N[C@H](C(=O)N[C@@H]3C(=O)NCC(=O)N[C@@H](C)C(=O)N[C@@H](CC(C)C)C(=O)N[C@@H](CCC(N)=O)C(=O)N/C(=C/C)C(=O)N[C@H](C(=O)N[C@@H](Cc4ccccc4)C(=O)N[C@@H](CC(C)C)C(=O)N[C@@H](CCC(N)=O)C(=O)N[C@@H]4C(=O)N[C@@H](CC(C)C)C(=O)N[C@H]5C(=O)N[C@@H](CSC4C)C(=O)NC(=O)[C@H](CC(N)=O)N[C@H](C(=O)N[C@@H](CCCCN)C(=O)N[C@H](C(=O)NC(=C)C(=O)N[C@@H](CCCCN)C(=O)O)[C@@H](C)CC)CSC5C)CSC3C)C(C)C)CSC2C)N[C@@H](CC(C)C)C(=O)NC1=O (some centres unmarked) [Subtilin]
- activity on cation selectivity (section heading of Table II) ([2]; maximum conc. tested 10^-6 M): Inactive

Compound: CC(C)[C@@H]1NC(=O)[C@H](C)OC(=O)[C@@H](C(C)C)NC(=O)[C@@H](C(C)C)OC(=O)[C@H](C(C)C)NC(=O)[C@H](C)OC(=O)[C@@H](C(C)C)NC(=O)[C@@H](C(C)C)OC(=O)[C@H](C(C)C)NC(=O)[C@H](C)OC(=O)[C@@H](C(C)C)NC(=O)[C@@H](C(C)C)OC1=O [Valinomycin, valinomycin]
- Partition coefficient between decane and NaCl (0.1 M), compared with KCl (0.1 M) ([3]; aqueous phase NaCl (0.1 M)): the same
- Partition coefficient between decane and pure H2O, compared with KCl (0.1 M) ([3]; aqueous phase pure H2O): the same
- solubility in water [4]: almost insoluble

Compound: Bacitracin A
- activity on cation selectivity (section heading of Table II) ([2]; maximum conc. tested 10^-6 M): Inactive

Compound: Gramicidin A
- selectivity for K+ over Na+ (section heading of Table II) [2]: moderate to low selectivity

Compound: Gramicidin B
- Bilayers, TNa/TK (ratio of the transference number for Na+ to that for K+) ([1]; compound 10^-6 M): 0.4
- selectivity for K+ over Na+ (section heading of Table II) [2]: moderate to low selectivity

Compound: Gramicidin C
- selectivity for K+ over Na+ (section heading of Table II) [2]: moderate to low selectivity

Compound: Phalloidin
- activity on cation selectivity (section heading of Table II) ([2]; maximum conc. tested 10^-4 M): Inactive

Compound: Polymixin B
- activity on cation selectivity (section heading of Table II) ([2]; maximum conc. tested 10^-5 M): Inactive

Compound: Vernamycin
- activity on cation selectivity (section heading of Table II) ([2]; maximum conc. tested 10^-5 M): Inactive

Compound: Viridogrisein
- activity on cation selectivity (section heading of Table II) ([2]; maximum conc. tested 10^-6 M): Inactive
